What is called EC90 is the concentration at which the effect reaches the 90% level. For orientation: EC50 means the concentration needed to bring the measured effect to its halfway point.

Values joined by “and” are separate entries in the source; they are usually repeats but may differ in a detail not shown here. Equal values may be shown once.

In one test the test system is Zika virus. In words: Functional CPE-based assay to measure dose dependent changes in antiviral-drug inhibitory efficacy against Zika virus MR766 in Vero E6 miRFP670 cells (cotreated with P-gp inhibitor, CP100356). Cells are treated with antiviral candidates that are serially diluted. EC50 is reported via analysis of MTS assay as a readout of CPE. The assay has been performed by KU Leuven. The class given is organism-based, Chlorocebus sabaeus, Vero C1008. Conditions: for EC90: P-gp concentration 500 nM, P-gp inhibitor CP100356.

The next test concerns dengue virus type 2. In words: Functional assay to measure dose dependent changes in antiviral-drug inhibitory efficacy against Dengue virus type 2 New Guinea C in Vero E6 miRFP670 cells (cotreated with P-gp inhibitor, CP100356). Cells are treated with antiviral candidates that are serially diluted, following infection, cells are fixed. EC50 is reported via analysis of fluorescence intensity using high-content imager. The …. It counts as organism-based, Chlorocebus sabaeus, Vero C1008. Particulars: for EC90: P-gp concentration 500 nM, P-gp inhibitor CP100356.

`CC(C)NC(=O)[C@H](Nc1ccc2c(c1)CNC2)c1cc(Cl)cc2[nH]c(-c3ccccc3)nc12`: the EC90 is 2.54 µM in the test on Zika virus (Baseline response 0 %, EC90 CI (lower) 1.625 uM, EC90 CI (upper) 3.959 uM, Hill slope 3.776, Maximum measured 116.485 %, Maximum response 100 %, Minimum measured 3.087 %, R squared 0.948); > 50 µM in the test on Zika virus (Zika virus, Vero C1008, Maximum measured -0.317 %, Minimum measured -11.958 %); > 3.12 µM with Zika virus (Zika virus, Vero C1008, Baseline response 0 %, Hill slope 1.53, Maximum measured 31.705 %, Maximum response 100 %, Minimum measured 3.074 %, R squared 0.825); > 50 µM with dengue virus type 2 (Baseline response 0 %, Hill slope -0.821, Maximum measured 139.415 %, Maximum response 100 %, Minimum measured 43.862 %, R squared 0.144); > 50 µM with dengue virus type 2 (Baseline response 0 %, Hill slope -1.532, Maximum measured 181.616 %, Maximum response 100 %, Minimum measured 48.773 %, R squared 0.025); > 12.5 µM in the test on dengue virus type 2 (Baseline response 0 %, Hill slope -1.75, Maximum measured 104.337 %, Maximum response 100 %, Minimum measured 20.383 %, R squared 0.733). In addition, in the test on dengue virus type 2 (vero c1008), the EC50 is 5.05 µM and > 50 µM.

Regarding `O=C(Nc1ccc2c(c1)CNC2)c1cc(F)cc2[nH]c(-c3cnc(C4CC4)o3)nc12`, the 90% effect concentration (EC90) in the test on Zika virus (Baseline response 0 %, Hill slope 1.364, Maximum measured 18.791 %, Maximum response 100 %, Minimum measured -1.808 %, R squared 0.107) was > 50 µM; with Zika virus (Zika virus, Vero C1008, Baseline response 0 %, Hill slope 2.704, Maximum measured 11.553 %, Maximum response 100 %, Minimum measured -5.923 %, R squared 0.137), > 50 µM; in the test on dengue virus type 2 (Baseline response 0 %, EC90 CI (lower) 0.872 uM, EC90 CI (upper) 3.596 uM, Hill slope -8.389, Maximum measured 102.302 %, Maximum response 100 %, Minimum measured 7.049 %, R squared 0.894) it was 2.99 µM; in the test on dengue virus type 2 (Dengue virus, Vero C1008, Baseline response 0 %, EC90 CI (lower) 0.484 uM, EC90 CI (upper) 7.419 uM, Hill slope -10.584, Maximum measured 98.644 %, Maximum response 100 %, Minimum measured 4.286 %, R squared 0.843), 2.87 µM. Moreover, the 50% effective concentration (EC50) in the test on Zika virus (Zika virus, Vero C1008) was > 50 µM; in the test on dengue virus type 2 (Dengue virus, Vero C1008), 2.33 µM; with dengue virus type 2 (vero c1008) it was 2.3 µM.

With `O=C(Nc1ccc2c(c1)CNC2)c1cc(Br)cc2[nH]c(=O)[nH]c12`, the EC50 in the test with Zika virus (Zika virus, Vero C1008) is > 50 µM; with dengue virus type 2 (Dengue virus, Vero C1008), > 50 µM. The 90% effect concentration (EC90) is > 50 µM in the test on Zika virus (Zika virus, Vero C1008, Baseline response 0 %, Hill slope 1.27, Maximum measured 26.011 %, Maximum response 100 %, Minimum measured -2.243 %, R squared 0.854) and > 50 µM with dengue virus type 2 (Dengue virus, Vero C1008, Maximum measured 135.314 %, Minimum measured 105.633 %).

As to `CNC(=O)[C@H](Nc1ccc2c(c1)CNC2)c1cc(Cl)cc2[nH]c(-c3ccccc3)nc12`, the 90% effect concentration (EC90) was 3.88 µM in the test on Zika virus (Baseline response 0 %, EC90 CI (lower) 1.657 uM, EC90 CI (upper) 9.069 uM, Hill slope 2.736, Maximum measured 134.068 %, Maximum response 100 %, Minimum measured 11.054 %, R squared 0.856); 3.21 µM in the test with Zika virus (Zika virus, Vero C1008, Baseline response 0 %, EC90 CI (lower) 2.457 uM, EC90 CI (upper) 4.2 uM, Hill slope 2.999, Maximum measured 107.773 %, Maximum response 100 %, Minimum measured 2.918 %, R squared 0.982); > 25 µM in the test with dengue virus type 2 (Dengue virus, Vero C1008, Maximum measured 190.221 %, Minimum measured 63.084 %); > 25 µM in the test with dengue virus type 2 (Dengue virus, Vero C1008, Baseline response 0 %, Hill slope -0.424, Maximum measured 89.369 %, Maximum response 100 %, Minimum measured 51.028 %, R squared 0.334). Also, the EC50 was 1.54 µM with Zika virus (Zika virus, Vero C1008); 1.74 µM in the test on Zika virus (vero c1008); > 25 µM in the test on dengue virus type 2 (Dengue virus, Vero C1008).

Turning to `N#Cc1ccc(-c2nc3c(C(=O)Nc4ccc5c(c4)CNC5)cc(F)cc3[nH]2)cc1`, the concentration for an effect of 90% (EC90) in the test with Zika virus (Baseline response 0 %, Hill slope 0.2, Maximum measured 29.739 %, Maximum response 100 %, Minimum measured 4.071 %, R squared 0.256) is > 50 µM; in the test on Zika virus (Zika virus, Vero C1008, Baseline response 0 %, Hill slope 0.539, Maximum measured 18.428 %, Maximum response 100 %, Minimum measured 0.213 %, R squared 0.888), > 50 µM; in the test with dengue virus type 2 (Dengue virus, Vero C1008, Maximum measured 143.39 %, Minimum measured 94.915 %) it was > 50 µM; with dengue virus type 2 (Dengue virus, Vero C1008, Maximum measured 155.678 %, Minimum measured 70.057 %) it was > 6.25 µM. The concentration for a half-maximal effect (EC50) in the test with Zika virus (Zika virus, Vero C1008) is > 50 µM; in the test with dengue virus type 2 (vero c1008), > 50 µM.

On to `Cc1nc2c(C(=O)Nc3ccc4c(c3)CNC4)cc(Cl)cc2[nH]1`, for which the EC50 in the test with Zika virus (Zika virus, Vero C1008) was > 50 µM; in the test with dengue virus type 2 (Dengue virus, Vero C1008), > 6.25 µM. The 90% effect concentration (EC90) in the test on Zika virus (Zika virus, Vero C1008, Maximum measured 8.786 %, Minimum measured -9.149 %) is > 50 µM; in the test on dengue virus type 2 (Dengue virus, Vero C1008, Baseline response 0 %, Hill slope -1.031, Maximum measured 89.345 %, Maximum response 100 %, Minimum measured 48.357 %, R squared 0.44), > 6.25 µM.

Take `O=C(NC1CCOCC1)[C@H](Nc1ccc2c(c1)CNC2)c1cc(Cl)cc2[nH]ncc12`: the EC50 with Zika virus (Zika virus, Vero C1008) was 16.8 µM; in the test with dengue virus type 2 (Dengue virus, Vero C1008) it was > 50 µM. For the same compound, the EC90 in the test on Zika virus (Zika virus, Vero C1008, Baseline response 0 %, Hill slope 1.579, Maximum measured 82.863 %, Maximum response 100 %, Minimum measured -0.215 %, R squared 0.968) is > 50 µM; in the test on dengue virus type 2 (Dengue virus, Vero C1008, Maximum measured 134.779 %, Minimum measured 105.958 %) it was > 50 µM.

With `O=C(Nc1ccc2c(c1)CNC2)c1cc(F)c2[nH]ccc2c1`, the EC50 was 24.5 µM with Zika virus (Zika virus, Vero C1008) and < 0.391 µM in the test on dengue virus type 2 (Dengue virus, Vero C1008). Further, the EC90 was > 50 µM in the test with Zika virus (Zika virus, Vero C1008, Baseline response 0 %, Hill slope 0.879, Maximum measured 122.421 %, Maximum response 100 %, Minimum measured -4.109 %, R squared 0.266) and < 0.391 µM in the test with dengue virus type 2 (Dengue virus, Vero C1008, Baseline response 0 %, Hill slope 3.427, Maximum measured 127.165 %, Maximum response 100 %, Minimum measured 69.586 %, R squared 0.325).

As for `Cc1cccc(-c2nc3c(C(=O)Nc4ccc5c(c4)CNC5)cc(Cl)cc3[nH]2)c1O`, the EC50 in the test on Zika virus (Zika virus, Vero C1008) is > 50 µM; in the test with dengue virus type 2 (Dengue virus, Vero C1008), 46.9 µM; with dengue virus type 2 (vero c1008), > 50 µM. For the same compound, the EC90 in the test on Zika virus (Zika virus, Vero C1008, Maximum measured 4.83 %, Minimum measured -9.413 %) is > 50 µM; with Zika virus (Zika virus, Vero C1008, Baseline response 0 %, Hill slope 1.997, Maximum measured 9.723 %, Maximum response 100 %, Minimum measured -5.385 %, R squared 0.475), > 50 µM; in the test on dengue virus type 2 (Dengue virus, Vero C1008, Maximum measured 146.036 %, Minimum measured 86.561 %), > 50 µM; in the test with dengue virus type 2 (Dengue virus, Vero C1008, Baseline response 0 %, Hill slope -5.285, Maximum measured 123.385 %, Maximum response 100 %, Minimum measured 41.68 %, R squared 0.576), > 50 µM.

`CC(C)CNC(=O)[C@H](Nc1ccc2c(c1)CNC2)c1cc(Cl)cc2[nH]ncc12`: the EC50 was 14.2 µM in the test on Zika virus (Zika virus, Vero C1008) and > 50 µM in the test with dengue virus type 2 (Dengue virus, Vero C1008). The 90% effect concentration (EC90) is 45.1 µM in the test on Zika virus (Zika virus, Vero C1008, Baseline response 0 %, EC90 CI (lower) 23.751 uM, EC90 CI (upper) 85.548 uM, Hill slope 1.9, Maximum measured 81.211 %, Maximum response 100 %, Minimum measured -3.072 %, R squared 0.886) and > 50 µM in the test with dengue virus type 2 (Dengue virus, Vero C1008, Maximum measured 133.558 %, Minimum measured 96.187 %).

For `O=C(Nc1ccc2c(c1)CNC2)c1cc(F)cc2nn(-c3ccccn3)nc12`, the EC90 in the test on Zika virus (Baseline response 0 %, Hill slope 0.342, Maximum measured 8.101 %, Maximum response 100 %, Minimum measured -1.287 %, R squared 0.284) was > 50 µM; with Zika virus (Baseline response 0 %, Hill slope -0.391, Maximum measured 8.995 %, Maximum response 100 %, Minimum measured 1.943 %, R squared 0.39), > 3.12 µM; with dengue virus type 2 (Baseline response 0 %, EC90 CI (lower) 0.77 uM, EC90 CI (upper) 2.483 uM, Hill slope -4.828, Maximum measured 102.327 %, Maximum response 100 %, Minimum measured 2.546 %, R squared 0.795) it was 3.44 µM; with dengue virus type 2 (Dengue virus, Vero C1008, Baseline response 0 %, EC90 CI (lower) 0.427 uM, EC90 CI (upper) 5.546 uM, Hill slope -1.321, Maximum measured 90.171 %, Maximum response 100 %, Minimum measured 71.834 %, R squared 0.697), > 6.25 µM. In addition, the EC50 in the test on Zika virus (vero c1008) is > 50 µM; in the test on dengue virus type 2 (vero c1008) it was > 6.25 µM and 2.18 µM.

Regarding `CCCNC(=O)[C@H](Nc1ccc2c(c1)CNC2)c1cc(Cl)cc2[nH]ncc12`, the EC50 in the test on Zika virus (Zika virus, Vero C1008) was 6.6 µM; in the test on dengue virus type 2 (Dengue virus, Vero C1008), > 50 µM. In addition, the EC90 is 13.7 µM in the test with Zika virus (Zika virus, Vero C1008, Baseline response 0 %, EC90 CI (lower) 8.551 uM, EC90 CI (upper) 22.021 uM, Hill slope 3.004, Maximum measured 121.473 %, Maximum response 100 %, Minimum measured -0.697 %, R squared 0.949) and > 50 µM in the test on dengue virus type 2 (Dengue virus, Vero C1008, Maximum measured 131.319 %, Minimum measured 89.09 %).
